# Experimental data from US20240150286A1, “PEROXISOME PROLIFERATOR-ACTIVATED RECEPTOR GAMMA (PPARy) LIGANDS AND METHODS OF USE AS TREATMENTS FOR INSULIN RESISTANCE, OBESITY, FATTY LIVER DISEASE, AND TYPE 2 DIABETES” (The Board of Regents of the University of Oklahoma, priority 2022, published 2024).
# Assays:
# [1] = system: diet-induced obesity (DIO) mice; assay: TZD-associated side effects in DIO mice (PCV, heart weight, cardiac and bone genes); assay type: in vivo, mouse
# Procedure: C57BL/6J male mice were obtained from Jackson laboratory (Bar Harbor, ME) and maintained on a 12 h light (6:00 AM to 6:00 PM)—12 h dark (6:00 PM to 6:00 AM) cycle at an ambient temperature of 22±1° C. All animals had access to diet and water ad libitum. All procedures involving animals were approved by the Institutional Animal Care and Use Committee of the University of Oklahoma Health Science Center. All experiments were performed with age-matched male mice. The mice were fed a high-fat diet (HFD) (60% kcal fat, Bio-Serv, NJ, USA) starting from the age of 6 weeks until study end. […] Food intake was determined manually by measuring the amount of input food subtracting the amount of the food remaining in the food hopper and the crumbs on the bedding of the cage each day for three days during the 4th week of the treatment. Packed cell volume (PCV) was measured with blood drawn from tail on a LW Scientific E8 centrifuge (LW Scientific, Lawrenceville, Georgia, USA) microhematocrit centrifuge at the end of study. For all other measurements, the blood was drawn at the time of euthanization.
# (§1) Total RNA (2 μg) was isolated from tissues or cells using TRIzol reagents (Life Technologies) and reverse transcribed using oligo d(T) primers (New England Biosystems) and SuperScript IV reverse transcription kit (Applied Biosystems). qPCR was performed in a CFX96 Touch Real-Time PCR detection system using SYBR Green mix (Applied Biosystems). The amplification program was as follows: initial denaturation at 95° C. for 15 min, followed by 40 cycles of 95° C. for 15 s, 60° C. for 1 min, and 40° C. for 30 s. Relative mRNA expression was determined by the ΔΔCt method normalized to TBP mRNA.
# human PPARγ2 = molecular target: T1, human PPARγ2 (Homo sapiens, UniProt P37231); assay: PPARγ transactivation reporter assay (3×PPRE-luc) in HEK-293 cells; assay type: cell-based; conditions: HEK293, PPARγ2 + 3×PPRE-luc, relative to Rosi
# T1 construct: host or cells: HEK-293
# T1 sequence (P37231 1-505): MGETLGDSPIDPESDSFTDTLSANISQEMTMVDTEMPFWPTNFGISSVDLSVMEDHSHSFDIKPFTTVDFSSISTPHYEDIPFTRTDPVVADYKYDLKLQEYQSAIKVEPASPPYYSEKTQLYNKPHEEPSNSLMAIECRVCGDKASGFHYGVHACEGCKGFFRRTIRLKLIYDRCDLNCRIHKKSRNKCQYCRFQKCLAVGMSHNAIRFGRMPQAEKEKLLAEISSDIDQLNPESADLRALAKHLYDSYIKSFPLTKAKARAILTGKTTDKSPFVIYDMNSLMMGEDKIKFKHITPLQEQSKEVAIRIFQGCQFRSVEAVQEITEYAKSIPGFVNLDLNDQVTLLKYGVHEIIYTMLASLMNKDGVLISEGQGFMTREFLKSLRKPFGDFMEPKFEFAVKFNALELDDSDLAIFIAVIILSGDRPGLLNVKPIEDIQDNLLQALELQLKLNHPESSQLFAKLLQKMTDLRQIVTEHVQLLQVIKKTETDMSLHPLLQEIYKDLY
# Procedure: HEK-293 cells were seeded overnight, co-transfected with plasmids expressing human PPARγ2 and 3×PPRE-luc (both from Addgene) followed by incubation for 16 h, and then re-seeded in a 384-well plate and incubated for 24 h. Compounds were added and then incubated another 24 h. Luciferase activity was analyzed in each well using Bright-Glo Luciferase kit (Promega).
# [2] = system: PPARγ S273 phosphorylation; assay: PPARγ S273 phosphorylation and phosphorylation-dependent genes in 3T3-L1 differentiated adipocytes; assay type: cell-based, mouse; conditions: 3T3-L1 differentiated adipocytes, TNFα 10 ng/ml 1 h, compounds at 10 μM, Western blot
# Procedure: as §1
# PPARγ = molecular target: T2, PPARγ (Homo sapiens, UniProt P37231); conditions: cited from earlier work
# T2 sequence (P37231 1-505): T1 sequence (P37231 1-505)
SMILES,"mRNA levels of bone formation genes (Bglap, SPP1, ColA1) ([1]; 4-week treatment)",heart weight ([1]; relative to vehicle),mRNA levels of Myh7 and Nppb in heart ([1]; vs vehicle),3×PPRE-luc reporter activity as % of potency of Rosi (human PPARγ2),S273 phosphorylation of PPARγ [2],PPARγ binding affinity (literature) (PPARγ),PPARγ phosphorylation at S273 (literature) (PPARγ)
"CN(CCOc1ccc(CC2SC(=O)NC2=O)cc1)c1ccccn1 (stereo not shown) [Rosi, rosiglitazone, reference compound]",decreased their expression significantly,significant increase,increased,–,–,–,–
"Cc1c(C)n(Cc2ccc(-c3ccccc3C(=O)O)cc2)c2ccc(C(=O)NCc3cccnc3)cc12 [UHC1, 4′ -((2,3-Dimethyl-5-(pyridine-3-ylmethylcarboamyl)-1H-indol-1-yl)methyl)biphenyl-2-carboxylic acid, reference compound]",–,–,–,approximately 45%,significantly inhibited,poor,inhibit
